Common to all, as to assay type: cell-based
The subject of assay [1] is FGFR stimulated HUVEC proliferation. Nature of the assay: BRDU growth factor stimulated proliferation of HUVEC (bFGF stimulation). The conditions noted are these: Homo sapiens, 72 h, 1.5 ng/ml bFGF, 3 days, BrdU incorporation. Here is the method: (§1) BRDU Growth Factor Stimulated Proliferation of HUVEC
(§2) Exponentially growing human umbilical vein endothelial cells (HUVEC; Cat# CC-2519A, Cambrex, Walkersville, Md.) were seeded at two thousand cells/well into Collagen IV-coated 96 well plates (Cat#35-4429, Becton Dickinson, Bedford, Mass.) in assay media containing RPMI-1640 (Cat#11875-093, Gibco, Carlsbad, Calif.), 0.5% charcoal-stripped serum (Cat# SH30068.03, HyClone, Logan, Utah), and 1% N-2 supplement (Cat#17502-048, Gibco, Carlsbad, Calif.). Fours hours after incubating the plates at 37° C. in 5% CO2, the cells were treated with different concentrations of compound (diluted in assay media with a final DMSO concentration=0.1%) and then were immediately stimulated with 80 ng/ml of vascular endothelial growth factor (VEGF, Cat#100-20, PeproTech, Rocky Hill, N.J.) or 1.5 ng/ml of basic fibroblast growth factor (bFGF, Catt#100-18B, PeproTech, Rocky Hill, N.J.). Treated cells were incubated for 3 days at 37° C. in 5% CO2. DNA synthesis was measured via the incorporation of bromodeoxyuridine (BrdU) into newly synthesized DNA using the Amersham Cell Proliferation BioTrack ELISA system (Cat# RPN250, Amersham, Piscataway, N.J.). Diluted BrdU solution (20 μl of stock BrdU diluted 1:20 fold into assay media) was added to each well and incubation proceeded for 6 hours at 37° C. in 5% CO2. The media was removed and the cells were fixed according to the specifications of the Amersham assay kit for 30 minutes at room temperature. After removing the fixative, blocking buffer (supplied by Amersham kit; 200 μl/well) was added and the plates were stored at 4° C. overnight. The blocking buffer was aspirated and peroxidase-labeled anti-BrdU antibody (supplied by Amersham kit; 100 μl/well) was added and incubated for 3 hours at room temperature. The plates were washed three times with wash buffer (supplied by Amersham kit; 300 μl/well/wash). Immediately following the washes, 100 μl of the TMB-substrate was dispensed into each well and the plates were further incubated for 30 minutes at room temperature. The reaction was terminated by the addition of 25 μl of 1M H2SO4. Plates were read immediately at 450 nm using a SpectraMAX 250 spectrophotometer plate reader (Molecular Devices, Sunnyvale, Calif.). The software utilized was SoftMAX pro v.2.4.1.
(In general: Uptake of a labelled nucleoside into DNA is a usual measure of proliferation.)

Assay [2] relates to VEGFR stimulated HUVEC proliferation. Nature of the assay: BRDU growth factor stimulated proliferation of HUVEC (VEGF stimulation). The settings on record: Homo sapiens, 72 h, 80 ng/ml VEGF, 3 days, BrdU incorporation. The method, then: as §1, §2
Assay [3] has as its system HCT116 cells. Nature of the assay: Tumor cell proliferation (Alamar Blue), HCT116. The settings on record: Homo sapiens, HCT-116, 72 h. Here is the method: (§3) Human tumor cells (e.g., HCT116 or MDA-MB-231 cells), are seeded in a Costar 96-well plate at 3.0×10^3 cells/well and grown in 150 μl of RPMI complete media (Invitrogen Corporation, Grand Island, N.Y.) containing 10% fetal bovine serum (Hyclone, Logan, Utah) at 37° C. for 16 h in an incubator with 5% CO2. To each well, 50 μl of additional growth media containing 40 μM to 18 nM concentrations of compound with 0.4% DMSO is added. Cells are grown for another 72 h at 37° C. with 5% CO2. 20 μl of Alamar Blue (Trek Diagnostic Systems, Inc., Cleveland, Ohio) reagent is added to each well and incubated for 3 h at 37° C. Plates are read in a SpectraMax Gemini (Molecular Devices, Calif.) with 544 nm excitation and 590 nm emission wavelength. IC50 values are determined by linear regression analysis of log drug concentration versus percent inhibition.
In general terms: Resazurin is reduced to fluorescent resorufin, in cell work by metabolically active cells.

For assay [4], the system named is VEGF stimulated Phospho-ERK in HUVEC. Put plainly: Growth factor stimulated p-ERK assay in HUVECs (VEGF stimulation, ERK1/2 Bioplex). The settings on record: Homo sapiens, compound 2 hrs, then 50 ng/ml VEGF 10 min; for inhibition at 0.1 µM: @ 100 nM. The method, boiled down: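 HUVECs in serum-free RPMI 1640/0.1% BSA pretreated with compound 2 hrs, then stimulated 10 min with 50 ng/ml VEGF (or bFGF). Lysate phospho-ERK1/2 quantified by bead-based Bio-Plex immunoassay on Luminex.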

For assay [5], the system named is MDA-MB-231 cells. Nature of the assay: Tumor cell proliferation (Alamar Blue), MDA-MB-231. The settings on record: Homo sapiens, MDA-MB-231, 72 h. Here is the method: as §3

This note sets out measurements from patent publication US7563791B2, “Pyrrolotriazine derivatives useful for treating hyper-proliferative disorders and diseases associated with angiogenesis” (Bayer Pharmaceuticals Corporation, priority 2004, dated 2009).

As for `Nc1ncnn2cc(CN3CCOCC3)c(-c3ccc(NC(=O)Nc4cc(C(F)(F)F)ccc4F)cc3)c12` [Example 30, N-{4-[4-amino-6-(morpholin-4-ylmethyl)pyrrolo[2,1-f][1,2,4]triazin-5-yl]phenyl}-N′-[2-fluoro-5-(trifluoromethyl)phenyl]urea], the 50% inhibitory concentration (IC50) in assay [1] fell in the range of 100 to 500 nM; in assay [2], 0.1 to 0.5 µM; in assay [3] (bounds given in μM), 1.5 to 5 µM. In addition, in assay [4], the inhibition at 0.1 µM was greater than 50%.
As to `COCc1cn2ncnc(N)c2c1-c1ccc(NC(=O)Nc2cc(C(F)(F)F)ccc2F)cc1` [Example 100, N-{4-[4-amino-6-(methoxymethyl)pyrrolo[2,1-f][1,2,4]triazin-5-yl]phenyl}-N′-[2-fluoro-5-(trifluoromethyl)phenyl]urea], the IC50 in assay [2] is greater than 0.5 µM; in assay [2] (bound given in μM), less than 2 µM; in assay [3] (bounds given in μM), 1.5 to 5 µM; in assay [5] (bounds given in μM) it was 1.5 to 5 µM. The same compound came in with an inhibition at 0.1 µM in assay [4] of less than 50%. Further, in assay [4] (@ 1 μM), the inhibition at 1 µM is greater than 50%.
For the compound `COCc1cn2ncnc(N)c2c1-c1ccc(NC(=O)Nc2cc(C(F)(F)F)ccn2)cc1` [Example 101, N-{4-[4-amino-6-(methoxymethyl)pyrrolo[2,1-f][1,2,4]triazin-5-yl]phenyl}-N′-[4-(trifluoromethyl)pyridin-2-yl]urea], the IC50 in assay [1] was less than 100 nM; in assay [2], less than 0.01 µM.
As to `COCc1cn2ncnc(N)c2c1-c1ccc(NC(=O)Nc2cc(F)cc(C(F)(F)F)c2)cc1` [Example 102, N-{4-[4-amino-6-(methoxymethyl)pyrrolo[2,1-f][1,2,4]triazin-5-yl]phenyl}-N′-[3-fluoro-5-(trifluoromethyl)phenyl]urea], the 50% inhibitory concentration (IC50) in assay [1] was in the range of 100 to 500 nM; in assay [2], 0.1 to 0.5 µM; in assay [3] (bounds given in μM) it was 1.5 to 5 µM; in assay [5] (bounds given in μM) it was 5 to 10 µM.
For the compound `N#Cc1cn2ncnc(N)c2c1-c1ccc(NC(=O)Nc2cc(F)cc(C(F)(F)F)c2)cc1` [Example 103, N-[4-(4-amino-6-cyanopyrrolo[2,1-f][1,2,4]triazin-5-yl)phenyl]-N′-[3-fluoro-5-(trifluoromethyl)phenyl]urea], the IC50 in assay [1] was less than 100 nM; in assay [2], 0.01 to 0.1 µM; in assay [3] (bounds given in μM), 5 to 10 µM; in assay [5] (bounds given in μM) it was 5 to 10 µM.
With `N#Cc1cn2ncnc(N)c2c1-c1ccc(NC(=O)Nc2ccc(F)c(C(F)(F)F)c2)cc1` [Example 151, N-[4-(4-amino-6-cyanopyrrolo[2,1-f][1,2,4]triazin-5-yl)phenyl]-N′-[4-fluoro-3-(trifluoromethyl)phenyl]urea], the IC50 in assay [1] is less than 100 nM; in assay [2] it was 0.01 to 0.1 µM.
As for `N#Cc1cn2ncnc(N)c2c1-c1ccc(NC(=O)Nc2cccc(OC(F)(F)F)c2)cc1` [Example 152, N-[4-(4-amino-6-cyanopyrrolo[2,1-f][1,2,4]triazin-5-yl)phenyl]-N′-[3-(trifluoromethoxy)phenyl]urea], the IC50 lay in the range of 100 to 500 nM in assay [1] and 0.1 to 0.5 µM in assay [2].
For `Nc1ncnn2cc(-c3cnco3)c(-c3ccc(NC(=O)Nc4cc(C(F)(F)F)ccc4F)cc3)c12` [Example 155, N-{4-[4-amino-6-(1,3-oxazol-5-yl)pyrrolo[2,1-f][1,2,4]triazin-5-yl]phenyl}-N′-[2-fluoro-5-(trifluoromethyl)phenyl]urea], the IC50 is 100 to 500 nM in assay [1], 0.01 to 0.1 µM in assay [2], less than 0.5 µM in assay [3] and less than 0.5 µM in assay [5].
For `COCCOCc1cn2ncnc(N)c2c1-c1ccc(NC(=O)Nc2cc(C(F)(F)F)ccc2F)cc1` [Example 157, N-(4-{4-amino-6-[(2-methoxyethoxy)methyl]pyrrolo[2,1-f][1,2,4]triazin-5-yl}phenyl)-N′-[2-fluoro-5-(trifluoromethyl)phenyl]urea], the half-maximal inhibitory concentration (IC50) in assay [1] lay within 100 to 500 nM; in assay [2], 0.01 to 0.1 µM; in assay [3] (bounds given in μM), 1.5 to 5 µM; in assay [5] (bounds given in μM), 1.5 to 5 µM.
With `Nc1ncnn2cc(-c3cnco3)c(-c3ccc(NC(=O)Nc4cc(F)cc(C(F)(F)F)c4)cc3)c12` [Example 159, N-{4-[4-amino-6-(1,3-oxazol-5-yl)pyrrolo[2,1-f][1,2,4]triazin-5-yl]phenyl}-N′-[3-fluoro-5-(trifluoromethyl)phenyl]urea], the IC50 in assay [1] is 100 to 500 nM; in assay [2], 0.01 to 0.1 µM; in assay [3], greater than 0.5 µM; in assay [3] (bounds given in μM), less than 1.5 µM; in assay [5], greater than 0.5 µM; in assay [5] (bounds given in μM), less than 1.5 µM.
On to `Nc1ncnn2cc(-c3cnco3)c(-c3ccc(NC(=O)Nc4ccc(F)c(C(F)(F)F)c4)cc3)c12` [Example 162, N-{4-[4-amino-6-(1,3-oxazol-5-yl)pyrrolo[2,1-f][1,2,4]triazin-5-yl]phenyl}-N′-[4-fluoro-3-(trifluoromethyl)phenyl]urea], for which the IC50 is 100 to 500 nM in assay [1]; 0.01 to 0.1 µM in assay [2]; greater than 0.5 µM in assay [3]; less than 1.5 µM in assay [3] (bounds given in μM); 1.5 to 5 µM in assay [5] (bounds given in μM).
`Nc1ncnn2cc(-c3nnco3)c(-c3ccc(NC(=O)Nc4cc(C(F)(F)F)ccc4F)cc3)c12` [Example 163, N-{4-[4-amino-6-(1,3,4-oxadiazol-2-yl)pyrrolo[2,1-f][1,2,4]triazin-5-yl]phenyl}-N′-[2-fluoro-5-(trifluoromethyl)phenyl]urea]: the IC50 in assay [2] is greater than 0.5 µM; in assay [2] (bound given in μM) it was less than 2 µM; in assay [3] (bounds given in μM), 1.5 to 5 µM; in assay [5] (bounds given in μM), 1.5 to 5 µM.
Regarding `CCOCc1cn2ncnc(N)c2c1-c1ccc(NC(=O)Nc2cc(C(F)(F)F)ccn2)cc1` [Example 218, N-{4-[4-amino-6-(ethoxymethyl)pyrrolo[2,1-f][1,2,4]triazin-5-yl]phenyl}-N′-[4-(trifluoromethyl)pyridine-2-yl]urea], the IC50 was 100 to 500 nM in assay [1], less than 0.01 µM in assay [2], 5 to 10 µM in assay [3] (bounds given in μM) and 5 to 10 µM in assay [5] (bounds given in μM).
For `CC(=O)c1cn2ncnc(N)c2c1-c1ccc(NC(=O)Nc2cc(C(F)(F)F)ccc2F)cc1` [Example 223, N-[4-(6-acetyl-4-aminopyrrolo[2,1-f][1,2,4]triazin-5-yl)phenyl]-N′-[2-fluoro-5-(trifluoromethyl)phenyl]urea], the IC50 was less than 100 nM in assay [1]; 0.01 to 0.1 µM in assay [2]; greater than 0.5 µM in assay [3]; less than 1.5 µM in assay [3] (bounds given in μM); greater than 0.5 µM in assay [5]; less than 1.5 µM in assay [5] (bounds given in μM).
Take `N#CCc1cn2ncnc(N)c2c1-c1ccc(NC(=O)Nc2cc(C(F)(F)F)ccn2)cc1` [Example 226, N-{4-[4-amino-6-(cyanomethyl)pyrrolo[2,1-f][1,2,4]triazin-5-yl]phenyl}-N′-[4-(trifluoromethyl)pyridin-2-yl]urea]: the half-maximal inhibitory concentration (IC50) in assay [1] was 100 to 500 nM; in assay [2] it was less than 0.01 µM; in assay [3] (bounds given in μM), 1.5 to 5 µM; in assay [5] (bounds given in μM), 1.5 to 5 µM.
On to `CC(=O)c1cn2ncnc(N)c2c1-c1ccc(NC(=O)Nc2cc(C(F)(F)F)ccn2)cc1` [Example 233, N-[4-(6-acetyl-4-aminopyrrolo[2,1-f][1,2,4]triazin-5-yl)phenyl]-N′-[4-(trifluoromethyl)pyridin-2-yl]urea], for which the IC50 in assay [1] was 100 to 500 nM; in assay [2], 0.01 to 0.1 µM; in assay [3] (bounds given in μM) it was 1.5 to 5 µM; in assay [5] (bounds given in μM) it was 1.5 to 5 µM.

The term IC50 denotes the concentration needed to halve the response being measured. Read a high IC50 as a need for much substance. The term inhibition denotes the drop in the measured response relative to a control, in per cent. Read a low inhibition as little suppression.
